The target of the experiment is T1, GPCR P2Y6 receptor complex (Homo sapiens, UniProt Q15077).
T1 construct: made in house; host or cells: baculovirus-inoculated insect cell (membrane fragments)
The experiment in a line: Nanocalorimetry measurement of agonist binding to a GPCR, amplified by G-protein hydrolysis of GTP. It is filed as biochemical. Particulars: after merging [UDP]=0.4 mM, [GTP]=1.15 mM. The source says:
We have measured reactions involving agonist binding to a GPCR (G-protein coupled receptor), at low GPCR concentration, by using the associated G-protein hydrolysis of GTP as the source of the amplified heat of reaction. Most of the heat in this example is from GTP hydrolysis by G-proteins activated by a GPCR with a bound agonist. GPCRs are transmembrane proteins that bind […] (e.g. agonist or inhibitor) on the extracellular side and, upon receptor binding, cause a G-protein (also a membrane protein) on the intracellular side to exchange GDP for GTP. After binding GTP, the G-protein dissociates from the GPCR, and the α subunit dissociates from the β-γ complex. The α subunit and β-γ complex can then migrate independently along the membrane and interact with targets.
Explaining this measurement in terms of FIG. 2A, the GPCR is the primary enzyme 44. We refer to the GPCR as an enzyme because it catalyzes the exchange of GDP for GTP on the G-protein and the subsequent dissociation of the α subunit of the G-protein from the β-γ complex. The G-protein before the GDP-GTP exchange and dissociation can be considered the substrate 40. The GPCR is also […], and as such it is activated in this example by binding of agonist, which is therefore an activator 42. The products 46 of the primary enzymatic reaction are the α subunit and β-γ complex of the dissociated G-protein. […]

T1 sequence (Q15077 whole entry, the tested form may be a part, one chain of several): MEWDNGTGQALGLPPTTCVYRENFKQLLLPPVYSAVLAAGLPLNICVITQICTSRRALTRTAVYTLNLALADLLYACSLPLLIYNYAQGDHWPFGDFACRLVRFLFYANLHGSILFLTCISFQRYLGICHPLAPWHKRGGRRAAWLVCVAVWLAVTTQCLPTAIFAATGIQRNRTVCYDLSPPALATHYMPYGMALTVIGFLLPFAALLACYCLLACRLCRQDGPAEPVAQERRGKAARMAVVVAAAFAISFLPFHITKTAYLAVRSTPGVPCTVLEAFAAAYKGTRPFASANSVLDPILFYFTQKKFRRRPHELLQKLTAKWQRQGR

For the compound `O=c1ccn([C@@H]2O[C@H](COP(=O)(O)OP(=O)(O)O)[C@@H](O)[C@H]2O)c(=O)[nH]1` [UDP], the “nanocalorimeter signal magnitude (differential temperature)” value (fragmented membranes with over-expressed P2Y6, 1 mg/ml total protein, 250 nL drops) stood at 1.2 m° C. The “duration of nanocalorimeter signal after the drops are merged” value (fragmented membranes with over-expressed P2Y6) was in the range of 1 to 2 s.
